Laboratory results taken from patent US9255295B2, “Method for evaluating the sensitizing potential of a test compound” (IMMUNOSEARCH, priority 2010, dated 2016).

Tested on: genes specific for sensitization (BRAK, CTSS, DAPK2, FABP4, HSP27, IL18, HSP90, IL1R2, TPSAB1, CXCR1, DEFB1, DHFR, EHF, IVL, KRT4, MELANA, NGAL, PDZK1IP1, PI3 …)
Assay: Expression of the other (non-ARE) sensitization-specific genes in EPISKIN reconstructed skin (quantitative RT-PCR)
Assay type: cell-based, human
Conditions: for BRAK expression / DHFR expression / HSP90 expression / IL18 expression / KRT4 expression / MELANA expression / PDZK1iP1 expression / SERPINB3 expression: compared to the control

Question: Which “BRAK NUMBER OF GENES grade” value (10%) does the source give for `O=CC=O` [Glyoxal] here?
Answer: 0 (if this expression is lower, the grade is 0)

Question: What about the “CTSS expression compared to control” value (10%) of the same compound?
Answer: 2.2

Question: And the “CTSS grade (NUMBER OF GENES)” value (10%)?
Answer: 1 (If the expression is greater than 1.3 compared to the control, a grade of 11s given)

Question: What about the “CXCR1 expression compared to control” value (10%) of the same compound?
Answer: 1.8

Question: What about the “CXCR1 grade (NUMBER OF GENES)” value (10%) of the same compound?
Answer: 1 (If the expression is greater than 1.3 compared to the control, a grade of 11s given)

Question: What about the “DAPK2 expression compared to control” value (10%) of the same compound?
Answer: 0.9

Question: And the “DAPK2 grade (NUMBER OF GENES)” value (10%)?
Answer: 0 (if this expression is lower, the grade is 0)

Question: What about the “DEFB1 expression compared to control” value (10%) of the same compound?
Answer: 1.6

Question: What about the “DEFB1 grade (NUMBER OF GENES)” value (10%) of the same compound?
Answer: 1 (If the expression is greater than 1.3 compared to the control, a grade of 11s given)

Question: What about the “DHFR NUMBER OF GENES grade” value (10%) of the same compound?
Answer: 0 (if this expression is lower, the grade is 0)

Question: And the “EHF expression compared to control” value (10%)?
Answer: 0.9

Question: What about the “EHF grade (NUMBER OF GENES)” value (10%) of the same compound?
Answer: 0 (if this expression is lower, the grade is 0)

Question: What about the “FABP4 expression compared to control” value (10%) of the same compound?
Answer: 0.8

Question: What about the “FABP4 grade (NUMBER OF GENES)” value (10%) of the same compound?
Answer: 0 (if this expression is lower, the grade is 0)

Question: And the “HSP27 expression compared to control” value (10%)?
Answer: 0.8

Question: And the “HSP27 grade (NUMBER OF GENES)” value (10%)?
Answer: 0 (if this expression is lower, the grade is 0)

Question: What about the “HSP90 NUMBER OF GENES grade” value (10%) of the same compound?
Answer: 1 (If the expression is greater than 1.3 compared to the control, a grade of 11s given)

Question: What about the “IL18 NUMBER OF GENES grade” value (10%) of the same compound?
Answer: 1 (If the expression is greater than 1.3 compared to the control, a grade of 11s given)

Question: And the “IVL expression compared to control” value (10%)?
Answer: 1.6

Question: And the “IVL grade (NUMBER OF GENES)” value (10%)?
Answer: 1 (If the expression is greater than 1.3 compared to the control, a grade of 11s given)

Question: What about the “KRT4 NUMBER OF GENES grade” value (10%) of the same compound?
Answer: 1 (If the expression is greater than 1.3 compared to the control, a grade of 11s given)

Question: What about the “MELANA NUMBER OF GENES grade” value (10%) of the same compound?
Answer: 0 (if this expression is lower, the grade is 0)

Question: What about the “NGAL expression compared to control” value (10%) of the same compound?
Answer: 1.3

Question: What about the “NGAL grade (NUMBER OF GENES)” value (10%) of the same compound?
Answer: 1 (If the expression is greater than 1.3 compared to the control, a grade of 11s given)

Question: What about the “P13 expression compared to control” value (10%) of the same compound?
Answer: 1.3

Question: What about the “P13 grade (NUMBER OF GENES)” value (10%) of the same compound?
Answer: 1 (If the expression is greater than 1.3 compared to the control, a grade of 11s given)

Question: And the “PDZK1iP1 NUMBER OF GENES grade” value (10%)?
Answer: 1 (If the expression is greater than 1.3 compared to the control, a grade of 11s given)

Question: What about the “SENS >1.3 (number of genes)” value (10%) of the same compound?
Answer: 13

Question: What about the “SERPINB3 NUMBER OF GENES grade” value (10%) of the same compound?
Answer: 1 (If the expression is greater than 1.3 compared to the control, a grade of 11s given)

Question: What about the “TOTAL SENS (number of genes)” value (10%) of the same compound?
Answer: 13

Question: What about the BRAK expression (10%) of the same compound?
Answer: 0.5

Question: And the DHFR expression (10%)?
Answer: 0.9

Question: What about the HSP90 expression (10%) of the same compound?
Answer: 1.5

Question: What about the IL18 expression (10%) of the same compound?
Answer: 1.3

Question: What about the KRT4 expression (10%) of the same compound?
Answer: 1.4

Question: What about the MELANA expression (10%) of the same compound?
Answer: 1.1

Question: What about the PDZK1iP1 expression (10%) of the same compound?
Answer: 1.4

Question: And the SERPINB3 expression (10%)?
Answer: 1.3

Question: What about the “BRAK NUMBER OF GENES grade” value (50%) of the same compound?
Answer: 0 (if this expression is lower, the grade is 0)

Question: And the “CTSS expression compared to control” value (50%)?
Answer: 2.7

Question: And the “CTSS grade (NUMBER OF GENES)” value (50%)?
Answer: 1 (If the expression is greater than 1.3 compared to the control, a grade of 11s given)

Question: What about the “CXCR1 expression compared to control” value (50%) of the same compound?
Answer: 2.7

Question: What about the “CXCR1 grade (NUMBER OF GENES)” value (50%) of the same compound?
Answer: 1 (If the expression is greater than 1.3 compared to the control, a grade of 11s given)

Question: What about the “DAPK2 expression compared to control” value (50%) of the same compound?
Answer: 0.9

Question: And the “DAPK2 grade (NUMBER OF GENES)” value (50%)?
Answer: 0 (if this expression is lower, the grade is 0)

Question: And the “DEFB1 expression compared to control” value (50%)?
Answer: 1.6

Question: And the “DEFB1 grade (NUMBER OF GENES)” value (50%)?
Answer: 1 (If the expression is greater than 1.3 compared to the control, a grade of 11s given)

Question: And the “DHFR NUMBER OF GENES grade” value (50%)?
Answer: 0 (if this expression is lower, the grade is 0)

Question: And the “EHF expression compared to control” value (50%)?
Answer: 0.9

Question: What about the “EHF grade (NUMBER OF GENES)” value (50%) of the same compound?
Answer: 0 (if this expression is lower, the grade is 0)

Question: And the “FABP4 expression compared to control” value (50%)?
Answer: 0.8

Question: What about the “FABP4 grade (NUMBER OF GENES)” value (50%) of the same compound?
Answer: 0 (if this expression is lower, the grade is 0)

Question: And the “HSP27 expression compared to control” value (50%)?
Answer: 0.8

Question: And the “HSP27 grade (NUMBER OF GENES)” value (50%)?
Answer: 0 (if this expression is lower, the grade is 0)

Question: And the “HSP90 NUMBER OF GENES grade” value (50%)?
Answer: 1 (If the expression is greater than 1.3 compared to the control, a grade of 11s given)

Question: And the “IL18 NUMBER OF GENES grade” value (50%)?
Answer: 0 (if this expression is lower, the grade is 0)

Question: And the “IVL expression compared to control” value (50%)?
Answer: 1.5

Question: What about the “IVL grade (NUMBER OF GENES)” value (50%) of the same compound?
Answer: 1 (If the expression is greater than 1.3 compared to the control, a grade of 11s given)

Question: And the “KRT4 NUMBER OF GENES grade” value (50%)?
Answer: 0 (if this expression is lower, the grade is 0)

Question: And the “MELANA NUMBER OF GENES grade” value (50%)?
Answer: 0 (if this expression is lower, the grade is 0)

Question: And the “NGAL expression compared to control” value (50%)?
Answer: 0.6

Question: And the “NGAL grade (NUMBER OF GENES)” value (50%)?
Answer: 0 (if this expression is lower, the grade is 0)

Question: And the “P13 expression compared to control” value (50%)?
Answer: 1.4

Question: What about the “P13 grade (NUMBER OF GENES)” value (50%) of the same compound?
Answer: 1 (If the expression is greater than 1.3 compared to the control, a grade of 11s given)

Question: What about the “PDZK1iP1 NUMBER OF GENES grade” value (50%) of the same compound?
Answer: 0 (if this expression is lower, the grade is 0)

Question: And the “SENS >1.3 (number of genes)” value (50%)?
Answer: 8

Question: And the “SERPINB3 NUMBER OF GENES grade” value (50%)?
Answer: 1 (If the expression is greater than 1.3 compared to the control, a grade of 11s given)

Question: What about the “TOTAL SENS (number of genes)” value (50%) of the same compound?
Answer: 8

Question: And the BRAK expression (50%)?
Answer: 0.5

Question: What about the DHFR expression (50%) of the same compound?
Answer: 0.9

Question: And the HSP90 expression (50%)?
Answer: 2.0

Question: And the IL18 expression (50%)?
Answer: 1.0

Question: And the KRT4 expression (50%)?
Answer: 0.6

Question: And the MELANA expression (50%)?
Answer: 1.1

Question: What about the PDZK1iP1 expression (50%) of the same compound?
Answer: 1.0

Question: And the SERPINB3 expression (50%)?
Answer: 1.7
